Laboratory results taken from paper PMC7813677 (Frontiers in Bioengineering and Biotechnology, 2021).
Non-standard residues stand in square brackets, D forms with d. Residues, ends and D or L forms follow the SMILES beside them.

Assay: Dissolution of the peptide in water
Format: physicochemical
Conditions: before addition of saline buffer pH 7.4
Method: Gels were prepared by dissolving lyophilized peptide in water to obtain 2X concentrated (wt%) peptide stock solution. Peptide assembly was initiated by mixing together equal volumes of peptide stock solution and chilled 2X HEPES buffer solution (150 mM HEPES, 300 mM NaCl, pH 7.4) on ice. The final mixed solution (1X wt% peptide in 75 mM HEPES, 150 mM NaCl, pH 7.4) was then incubated for 2 h at 37°C, resulting with a self-supporting gel.

Solubility in water: readily dissolved in water
Structure (SMILES): CC(C)[C@H](N)C(=O)N[C@@H](CCCCN)C(=O)N[C@H](C(=O)N[C@@H](CCCCN)C(=O)N[C@H](C(=O)N[C@@H](CCCCN)C(=O)N[C@H](C(=O)N[C@@H](CCCCN)C(=O)N[C@H](C(=O)N1CCC[C@@H]1C(=O)N1CCC[C@H]1C(=O)N[C@H](C(=O)N[C@@H](CCCCN)C(=O)N[C@H](C(=O)N[C@@H](Cc1ccc(O)cc1)C(=O)N[C@H](C(=O)N[C@@H](CCCCN)C(=O)N[C@H](C(=O)N[C@@H](CCCCN)C(=O)N[C@H](C(N)=O)C(C)C)C(C)C)C(C)C)C(C)C)[C@@H](C)O)C(C)C)C(C)C)C(C)C)C(C)C [tyrosine-functionalized peptide] (H-VKVKVKVKV[dP]PTKVYVKVKV-NH2)
